This is an account of results in patent US11548850B2, “Development of a cofilin inhibitor for the treatment of hemorrhagic brain injury-induced neuroinflammation” (The University of Toledo, priority 2019, dated 2023).

“Also recorded” adds a separate entry of the source.

What all share (format): cell-based, human
One experiment has as its system TNF-α. Put plainly: TNF-α ELISA in LPS-challenged HMC3 cells. The conditions noted are these: SZ-3 10 μM and 5 μM. How it is done: Cultured HMC3 cells were challenged with 0.1 μg/mL of LPS and treated with different concentrations of SZ-3 concurrently. At the end of the experiment cells were harvested for MTT by CellTiter-Glo Luminescent assay (FIG. 9A), Griess assay for NO release (FIG. 9B), and TNF-α by ELISA (FIG. 9C).
After hemorrhage, activated microglia release proinflammatory mediators such as cytokines, chemokines, and nitric oxide (NO) leading to secondary injury which may be worse than the initial insult and may result in severe neurological deficits and death. In order to test whether the synthesized compound will reduce or stop microglial activation and inflammation after hemorrhage, whether the compound poses toxicity to microglia was first assessed. […]
Next, a NO release assay was performed to determine if SZ-3 can reduce the NO release. […] Next, whether the major inflammatory cytokine TNF-α is reduced with the SZ-3 treatment was evaluated. […]
HMC3 cells (30,000 cells/well in a 96-well plate) were stimulated by LPS ([…]), then treated with DMSO or different concentrations of drug 3 h later. The supernatants were collected after 24 h, and the concentrations of TNF-α were measured using enzyme-linked immunosorbent assay (ELISA) according to the kit's instructions (R&D Systems, Inc.).
(In general: ELISA stands for enzyme-linked immunosorbent assay.)

The next experiment concerns cofilin. Kind of experiment: WB of cofilin in thrombin-challenged HMC3 cells. The conditions noted are these: thrombin 100 U/ml. The method, then: FIG. 11: SZ-3 reduces inflammation through NF-κB mechanism. Cultured HMC3 cells were challenged with thrombin 100 U/ml and after 3 h were treated with different concentrations of SZ-3 (10 and 5 μM). Cells were harvested for WB analysis after 24 h.
WB was used to assay the expression levels of cofilin, phosphocofilin, and NF-κB. […] Without wishing to be bound by theory, the role of phosphocofilin is not fully understood, but it is believed that it is decreased in stress conditions and its restoration is beneficial.
HMC3 cells were cultured in DMEM/F12 medium supplemented with 5% horse serum (HS), 10% fetal bovine serum (FBS), and 1% penicillin/streptomycin. Cells were stimulated with 100 U/ml thrombin from bovine plasma (Sigma) and treated without (vehicle) or with different concentrations of SZ-3.
Cells were harvested and washed with ice-cold lysis buffer (250 mM sucrose, 1.5 mM MgCl2, 10 mM KCl, 20 mM HEPES 7.6 pH, 1 mM of dithiothreitol, 1 mM phenylmethylsulfonyl fluoride, 50 mM NaF, 10 mM sodium orthovanadate, 20 mM sodium pyrophosphate, and protease inhibitors) for 15 min then supplemented with 5% of Nonidet P-40 for 2 min. Cytosolic fraction was collected from the supernatant after centrifugation at 14,000 g for 10 min. Bradford reagent (Bio-Rad Laboratories) was used to determine the protein concentrations, and equal amounts of samples were loaded onto 10-15% SDS-polyacrylamide gels, separated by electrophoresis, and transferred to PVDF membranes. Membranes were blocked and incubated with primary antibodies; cofilin, phosphocofilin, and NF-kB (Cell Signaling Technology) at 4° C. overnight. Membranes were incubated for 1 h at room temperature with horseradish peroxidase-conjugated secondary antibody (1:5000; Jackson ImmunoResearch) after washing. Glyceraldehyde 3-phosphate dehydrogenase (GAPDH) or beta-actin were used as the loading control, and band intensity analyzed using Bio-Rad Chemi-Doc XRS Image Lab Software.

Another experiment has as its system HMC3 cells. Kind of experiment: Scratch wound assay (IncuCyte) of microglial migration and proliferation. The conditions noted are these: LPS 200 ng/ml. The method, then:
HMC3 cells were seeded onto a poly-D-lysine hydrobromidecoated-coated 96-well culture plate and placed overnight in a 37° C. IncuCyte S3. WoundMaker was used to simultaneously create wounds in all wells and then LPS (200 ng/ml) was added to wounded cells except control group. After 3 h cells were treated with DMSO (control) or SZ-3 (5 μM). The wound images were taken at 2 h intervals for 58 h. Data were processed and analyzed by using IncuCyte software.
In response to brain injury, microglia transform into an activated state and migrate to the damaged area. This migration leads to an accumulation of activated microglia around the injury site resulting in vicious cycle of microglial activation and further release of inflammatory cytokines. To elucidate whether SZ-3 can stop or reduce the migration of activated microglial cells towards the injury site, a scratch wound assay was performed. At different time intervals, wound confluence, relative wound, and wound width metrics were assayed to analyze the migration of the microglial cells.
HMC3 cells (30,000 cells/well) were seeded onto a poly-D-lysine hydrobromidecoated-coated 96-well culture plate (corning) and placed overnight in a 37° C. IncuCyte S3 (Essen BioScience) supplied with 5% CO2. WoundMaker (Essen BioScience) was used to simultaneously create wounds in all wells then washed twice with culture medium. LPS (200 ng/ml) was added to wounded cells except control group immediately after the wash. 3 h later cells were treated with DMSO (control) or SZ-3 (5 μM). The wound images were taken at 2 h intervals for 72 h. Data were processed and analyzed by using IncuCyte software.

On to `CC(C)(C)c1ccc(O)c(CN(Cc2cc(C(C)(C)C)ccc2O)C2CCC(NC(N)=O)CC2)c1` (centres unmarked) [SZ-3, 4-{bis[(5-tert-butyl-2-hydroxyphenyl)methyl]amino}cyclohexyl urea], for which the TNF-α levels entry with TNF-α was “significantly reduced TNF-α levels; also recorded: significantly reduced NO and TNF-α release”. Moreover, in the experiment with cofilin (SZ-3 5 μM (FIG. 11 legend)), the cofilin expression result was “reduced by treatment with 5 μM of SZ-3”. The cofilin level entry with cofilin (SZ-3 10 μM) was “significant decrease in cofilin level was observed only in 10 μM”. The cofilin expression level result with cofilin (SZ-3 10, 5 μM after 3 h, WB after 24 h) is “significantly reduced”. Moreover, in the experiment on HMC3 cells (SZ-3 5 μM after 3 h), the “distance between the migrating edges of the wound (wound width)” value is “in between”; the “microglial migration and proliferation” value is “reduces the proliferation and migration of the microglial cells; also recorded: reduced microglial migration and proliferation”. The “confluence of cells within the wound region” value in the experiment with HMC3 cells (SZ-3 5 μM after 3 h, first 24 h) was “less with SZ-3 treated cells relative to non-treated cells”. For the same molecule, the “cell density in the wound area relative to outside the wound area” value with HMC3 cells (SZ-3 5 μM, after the 24 h of treatment) is “slow increase rate in cell density in the wound area”.
